Earlier results, collected in patent US20210069064A1, “A MANUFACTURING METHOD OF AN HERBAL MEDICINAL TABLET FORMULATION FOR TREATING OBESITY WHICH CAN BE […] ON SASANG CONS[…]” (NUBEBE CO., LTD., priority 2017, published 2021).

Settings: taken for 20 weeks or more

CN[C@@H](C)[C@H](O)c1ccccc1 [ephedrine]
weight and body fat change compared to the control group: weight and body fat loss
